We go through 37 molecules from US9221834B2 (Merck Sharp & Dohme Corp., priority 2010, dated 2015).

For this test, the target named is T1, recombinant CETP (rCETP) (Homo sapiens, UniProt P11597).
T1 sequence (P11597 18-493): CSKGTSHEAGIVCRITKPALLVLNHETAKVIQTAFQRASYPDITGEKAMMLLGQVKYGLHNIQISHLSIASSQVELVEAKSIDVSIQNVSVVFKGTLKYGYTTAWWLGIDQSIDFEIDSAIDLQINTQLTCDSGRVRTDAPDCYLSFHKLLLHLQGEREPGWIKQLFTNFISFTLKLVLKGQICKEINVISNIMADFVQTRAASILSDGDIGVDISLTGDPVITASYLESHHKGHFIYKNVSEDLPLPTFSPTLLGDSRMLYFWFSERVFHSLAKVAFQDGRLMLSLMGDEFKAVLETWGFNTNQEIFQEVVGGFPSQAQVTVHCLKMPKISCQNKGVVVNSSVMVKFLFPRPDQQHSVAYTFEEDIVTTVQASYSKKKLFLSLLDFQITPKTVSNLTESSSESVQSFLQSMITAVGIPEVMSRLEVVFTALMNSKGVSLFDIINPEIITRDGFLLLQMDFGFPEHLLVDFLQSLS
Briefly: RTA assay using recombinant CETP (2% RTA). Conditions: RTA assay in 2% human serum; read-out: IC50. The format is biochemical. An outline of the steps: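 Compounds preincubated 1 h at 37 °C with assay cocktail (CETP buffer: 50 mM Tris pH 7.4, 100 mM NaCl, 1 mM EDTA; human HDL acceptor); transfer started with [3H]cholesteryl oleate- or [3H]triolein-labelled LDL, 60 min at 37 °C. LDL PEG-precipitated; supernatant counted by scintillation, blank-corrected; IC50 from 4-parameter sigmoidal fit of % inhibition vs DMSO control.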

By IC50 is commonly meant the point on the concentration scale where inhibition reaches its midpoint. Regarding `COC(=O)CCc1ccc(OC)c(-c2c(C)nc(N3CC(F)(F)C3)nc2CN2C(=O)O[C@H](c3cc(C(F)(F)F)cc(C(F)(F)F)c3)[C@@H]2C)c1` [Example 139, Methyl 3-{3-[4-({(4S,5R)-5-[3,5-bis(trifluoromethyl)phenyl]-4-methyl-2-oxo-1,3-oxazolidin-3-yl}methyl)-2-(3,3-difluoroazetidin-1-yl)-6-methylpyrimidin-5-yl]-4-methoxyphenyl}propanoate], the concentration for half-maximal inhibition (IC50) is 13 nM.

`COc1ccc(CCC(=O)O)cc1-c1c(C)cc(N2CC(F)(F)C2)nc1CN1C(=O)O[C@H](c2cc(C(F)(F)F)cc(C(F)(F)F)c2)[C@@H]1C` [Example 63]: the IC50 stood at 5 nM. For the molecule `COc1ccc(CC(N)=O)cc1-c1ccc(N2CCC2)nc1CN1C(=O)O[C@H](c2cc(C(F)(F)F)cc(C(F)(F)F)c2)[C@@H]1C` [Example 254, 2-{3-[6-azetidin-1-yl-2-({(4S,5R)-5-[3,5-bis(trifluoromethyl)phenyl]-4-methyl-2-oxo-1,3-oxazolidin-3-yl}methyl)pyridin-3-yl]-4-methoxyphenyl}acetamide], the IC50 came to 15 nM. Next, `COc1ccc([C@H]2CC[C@H](C(=O)O)CC2)cc1-c1ccc(N2CC(F)(F)C2)nc1CN1C(=O)O[C@H](c2cc(F)cc(C(F)(F)F)c2)[C@@H]1C` [Example 283, trans-4-{3-[6-(3,3-difluoroazetidin-1-yl)-2-({(4S,5R)-5-[3-fluoro-5-(trifluoromethyl)phenyl]-4-methyl-2-oxo-1,3-oxazolidin-3-yl}methyl)pyridin-3-yl]-4-methoxyphenyl}cyclohexanecarboxylic acid]: 9 nM; `COc1ccc(CC#N)cc1-c1ccc(N2CCC2)nc1CN1C(=O)O[C@H](c2cc(C(F)(F)F)cc(C(F)(F)F)c2)[C@@H]1C` [Example 256, {3-[6-azetidin-1-yl-2-({(4S,5R)-5-[3,5-bis(trifluoromethyl)phenyl]-4-methyl-2-oxo-1,3-oxazolidin-3-yl}methyl)pyridin-3-yl]-4-methoxyphenyl}acetonitrile]: 5 nM; `COc1ccc(CCC(=O)O)cc1-c1c(CN2C(=O)O[C@H](c3cc(C(F)(F)F)cc(C(F)(F)F)c3)[C@@H]2C)nc(N2CCC2)c(Br)c1C` [Example 70]: 4 nM.

As to `COc1ccc(-n2ncc(C(=O)O)c2C(F)(F)F)cc1-c1cnc(N2CC(F)(F)C2)nc1CN1C(=O)O[C@H](c2cc(C(F)(F)F)cc(C(F)(F)F)c2)[C@@H]1C` [Example 191], the IC50 was determined as 9 nM. On to `CCOC(=O)CCc1ccc(OC)c(-c2ccc(N3CCC3)nc2CN2C(=O)O[C@H](c3cccc(C(F)(F)F)c3)[C@@H]2C)c1` [Example 197], for which the IC50 is 59 nM. Turning to `COc1ccc([C@H]2CC[C@H](C(=O)OC)CC2)cc1-c1cnc(N2CC(F)(F)C2)nc1CN1C(=O)O[C@H](c2cc(C(F)(F)F)cc(C(F)(F)F)c2)[C@@H]1C` [Example 128], the IC50 was 1080 nM.

Take `C[C@H]1[C@@H](c2cc(C(F)(F)F)cc(C(F)(F)F)c2)OC(=O)N1Cc1nc(N2CCC2)ccc1-c1cc(CCC(=O)O)ccc1Cl` [Example 74]: the half-inhibitory concentration (IC50) was 9 nM. As for `Cc1cc(C(=O)O)ccc1-c1ccc(C)c(-c2cnc(N3CC(F)(F)C3)nc2CN2C(=O)O[C@H](c3cc(C(F)(F)F)cc(C(F)(F)F)c3)[C@@H]2C)c1` [Example 178], the IC50 is 6 nM. Next, `COc1ccc([C@H]2C[C@@H](C(=O)O)C2)cc1-c1c(C)cc(N2CCC2)nc1CN1C(=O)O[C@H](c2cc(C(F)(F)F)cc(C(F)(F)F)c2)[C@@H]1C` [Example 96]: 8 nM; `COc1ccc(-c2csc(C(=O)O)c2)cc1-c1ccc(N2CCC2)nc1CN1C(=O)O[C@H](c2cc(C(F)(F)F)cc(C(F)(F)F)c2)[C@@H]1C` [Example 107]: 72 nM; `COc1ccc(C2C[C@H]2C(=O)O)cc1-c1cnc(N2CCC2)nc1CN1C(=O)O[C@H](c2cc(C(F)(F)F)cc(C(F)(F)F)c2)[C@@H]1C` (stereo partly shown) [Example 153]: 53 nM.

With `COc1ccc(CCC(=O)O)cc1-c1ccc(N2CCC2)nc1CN1C(=O)O[C@H](c2cc(F)c(F)c(F)c2)[C@@H]1C` [Example 98], the concentration for half-maximal inhibition (IC50) turned out to be 223 nM. As to `COc1cc(F)c(-c2ccc(C(=O)O)cc2C)cc1-c1cnc(N2CC(OC)C2)nc1CN1C(=O)O[C@H](c2cc(C(F)(F)F)cc(C(F)(F)F)c2)[C@@H]1C` [Example 165], the IC50 came to 11 nM. On to `COc1cc(F)c(-c2ccc(C(=O)O)cc2C)cc1-c1ccc(N2CC(F)(F)C2)nc1CN1C(=O)O[C@H](c2cccc(OC(F)(F)F)c2)[C@@H]1C` [Example 296], for which the IC50 stood at 8 nM. Next, `COc1ccc([C@H]2CC[C@H](C(=O)O)CC2)cc1-c1ccc(N2CCC2)nc1CN1C(=O)O[C@H](c2cc(C(F)(F)F)cc(C(F)(F)F)c2)[C@@H]1C` [Example 73]: 8 nM. Take `COc1cc(F)c([C@H]2C[C@@H](C(=O)OC)C2)cc1-c1ccc(N2CCC2)nc1CN1C(=O)O[C@H](c2cc(C(F)(F)F)cc(C(F)(F)F)c2)[C@@H]1C` [Example 37]: the IC50 stood at 17 nM. Next, `CCOC(=O)CCc1ccc(OC)c(-c2ccc(N3CCC3)nc2CN2C(=O)O[C@H](c3cccc(C)c3)[C@@H]2C)c1` [Example 199]: 237 nM; `COC(=O)c1scc(-c2ccc(OC)c(-c3cc(Br)c(N4CCC4)nc3CN3C(=O)O[C@H](c4cc(C(F)(F)F)cc(C(F)(F)F)c4)[C@@H]3C)c2)c1C` [Example 50]: 15 nM. Next, `CCOC(=O)[C@@H]1CC1c1ccc(OC)c(-c2cnc(N3CCC3)nc2CN2C(=O)O[C@H](c3cc(C(F)(F)F)cc(C(F)(F)F)c3)[C@@H]2C)c1` (stereo partly shown) [Example 124]: 33 nM; `COc1ccc(CCC(=O)O)cc1-c1ccc(N2CC(F)(F)C2)nc1CN1C(=O)O[C@H](c2cc(C(F)(F)F)cc(C(F)(F)F)c2)[C@@H]1C` [Example 64]: 13 nM. Next, `COC(=O)CC(C)(C)c1ccc(OC)c(-c2ccc(N3CCC3)nc2CN2C(=O)O[C@H](c3ccc(F)c(F)c3)[C@@H]2C)c1` [Example 12]: 227 nM; `COc1ccc(-c2nc(C(=O)O)cs2)cc1-c1ccc(N2CCC2)nc1CN1C(=O)O[C@H](c2cc(C(F)(F)F)cc(C(F)(F)F)c2)[C@@H]1C` [Example 115]: 285 nM. As for `COc1ccc([C@@H]2C[C@H]2C(=O)O)cc1-c1ccc(N2CC(F)(F)C2)nc1CN1C(=O)O[C@H](c2cc(C(F)(F)F)cc(C(F)(F)F)c2)[C@@H]1C` [Example 66], the IC50 came to 8 nM. For the molecule `Cc1cc(C(=O)O)ccc1-c1cc(F)cc(-c2ccc(N3CCC3)nc2CN2C(=O)O[C@H](c3cc(C(F)(F)F)cc(C(F)(F)F)c3)[C@@H]2C)c1` [Example 288], the 50% inhibitory concentration (IC50) was found to be 11 nM. Next, `COc1cc(F)c(-c2ccc(C(=O)O)cc2C)cc1-c1ccc(N2CCC2)nc1CN1C(=O)O[C@H](c2cc(F)cc(F)c2)[C@@H]1C` [Example 87]: 7 nM; `COC(=O)CCc1ccc(Cl)c(-c2ccc(N3CCC3)nc2CN2C(=O)O[C@H](c3cc(C(F)(F)F)cc(C(F)(F)F)c3)[C@@H]2C)c1` [Example 5]: 7 nM; `COc1ccc([C@@H]2CC[C@H](C(=O)O)C2)cc1-c1ccc(N2CCC2)nc1CN1C(=O)O[C@H](c2cc(C(F)(F)F)cc(C(F)(F)F)c2)[C@@H]1C` (single isomer, unassigned) [Example 245]: 9 nM. Next, `COC(=O)c1ccc(-c2ccc(OC)c(-c3ccc(N4CCC4)nc3CN3C(=O)O[C@H](c4cc(C(F)(F)F)cc(C(F)(F)F)c4)[C@@H]3C)c2)o1` [Example 47, Methyl 5-{3-[6-azetidin-1-yl-2-({(4S,5R)-5-[3,5-bis(trifluoromethyl)phenyl]-4-methyl-2-oxo-1,3-oxazolidin-3-yl}methyl)pyridin-3-yl]-4-methoxyphenyl}-2-furoate]: 34 nM; `COc1ccc([C@@H]2CC[C@@H](C(=O)O)C2)cc1-c1ccc(N2CCC2)nc1CN1C(=O)O[C@H](c2cc(C(F)(F)F)cc(C(F)(F)F)c2)[C@@H]1C` (single isomer, unassigned) [Example 238]: 5 nM; `COc1ccc([C@H]2CC[C@H](C(=O)OC)CC2)cc1-c1ccc(N2CCC2)nc1CN1C(=O)O[C@H](c2cc(F)c(F)c(F)c2)[C@@H]1C` [Example 35]: 439 nM. Next, `COC(=O)c1ccc(-c2ccc(OC)c(-c3cnc(N4CC(OC)C4)nc3CN3C(=O)O[C@H](c4cc(C(F)(F)F)cc(C(F)(F)F)c4)[C@@H]3C)c2)c(C)c1` [Example 135]: 89 nM. As for `CCc1ccc([C@@H]2C[C@H]2C(=O)O)cc1-c1ccc(N2CCC2)nc1CN1C(=O)O[C@H](c2cc(C(F)(F)F)cc(C(F)(F)F)c2)[C@@H]1C` [Example 88], the IC50 came to 9 nM. Next, `COc1cc(F)c(-c2ccc(C(=O)O)cc2C)cc1-c1cnc(N2CC(F)C2)nc1CN1C(=O)O[C@H](c2cc(C(F)(F)F)cc(C(F)(F)F)c2)[C@@H]1C` [Example 152, 5′-[4-({(4S,5R)-5-[3,5-bis(trifluoromethyl)phenyl]-4-methyl-2-oxo-1,3-oxazolidin-3-yl}methyl)-2-(3-fluoroazetidin-1-yl)pyrimidin-5-yl]-2′-fluoro-4′-methoxy-2-methylbiphen-4-carboxylic acid]: 10 nM; `C[C@H]1[C@@H](c2cc(C(F)(F)F)cc(C(F)(F)F)c2)OC(=O)N1Cc1nc(N2CCC2)ccc1-c1cc(CCC(=O)O)ccc1OC1CC1` [Example 248]: 19 nM.
